According to patent US20220204491A1, “FXR (NR1H4) MODULATING COMPOUNDS” (Gilead Sciences, Inc., priority 2019, published 2022):
Like-named read-outs stand apart in the source and are kept apart here.

Legend:
Farnesoid X receptor = test: In vivo pharmacodynamics in cynomolgus monkey: plasma FGF19 after oral versus IV dosing; conditions: for FGF19 levels compared to baseline: IV administration; for FGF19 levels compared to baseline / plasma FGF19 over the dosing interval compared to baseline: cynomolgus monkey; for FGF19 AUClast: male cynomolgus monkey, plasma, 24 hour period; for Ratio AUClast to FG19/GS: FGF19 AUClast over drug AUClast; for PO/IV: PO ratio (FGF19/GS AUClast) over IV ratio; for plasma FGF19 over the dosing interval compared to baseline: oral administration
Protocol: In vivo pharmacodynamics of Formula (I) of Example 1, Comparative Example 1, and Comparative Example 2 were determined as follows.
(§1) Oral solution doses of Formula (I) (Example 1) were formulated at concentrations of 1 mg/mL in aqueous suspensions of 1% sodium laurel sulfate (SLS), 1% ethanol, and 98% water at pH 2. Oral suspension doses of Comparative Example 1, and Comparative Example 2 were formulated at concentrations of 2.5 mg/mL in 1% hydyroxypropyl methylcellulose (HPMC), 0.5% Tween 80, and 98.5% water.
(§2) Intravenous doses of compounds of Formula (I) (Example 1), Comparative Example 1, and Comparative Example 2 were formulated at concentrations of 0.5 mg/mL in a vehicle including 5% DMSO, 15% NMP, 60% PEG 300 and water with 1.1 equivalents of NaOH.
(§3) Each dosing group consisted of three to six male Cynomolgus monkeys. At dosing, the animals weighed between 2.4 and 4.4 kg.
(§4) The oral test articles were administered to the monkeys via oral gavage at 2 mL/kg or nasogastric untubation at 5 mL/kg for a dose of 5 mg/kg. The intravenous test articles were administered as an approximately 30-minute infusion via an indwelling catheter in a saphenous or cephalic vein at approximately 2 mL/kg for a dose of 1 mg/kg.
(§5) Venous blood samples were taken at specified time points after dosing from each animal. The blood samples were collected and transferred into tubes containing potassium (K2) EDTA anticoagulant.
The FGF19 ELISA assay kit from BioVendor (product number RD191107200R) was used to determine FGF19 concentrations in the collected blood samples.
(§6) Activation of the Farnesoid X receptor in the distal small intestine as well as systemically in organs such as the liver, directly causes the expression and secretion of FGF19. Plasma FGF levels were evaluated as a pharmacodynamics marker of FXR activation in male cynomolgus monkeys following administration of oral and intravenous administration of doses of Example 1, Comparative Example 1, or Comparative Example 2. The difference between levels of FGF19 following oral administration (PO) versus intravenous administration (IV) were used to compare the degree of intestinal FXR agonism (via analysis of PO data) and systemic FXR agonism (via analysis of IV data) for each compound administered. Plasma levels of drug and FGF19 were measured at various time points over a 24 hour period to generate pharmacokinetic and pharmacodynamics curves.

[1] = Drug concentration in plasma of cynomolgus monkey (LC/MS/MS); format: in vivo; conditions: male cynomolgus monkey, read-out: GS-AUClast
Protocol: as §1, §2, §3, §4, §5
For analysis on an API 5000 LC/MS/MS system, an aliquot of 50 μL of each plasma sample was treated with 200 μL of acetonitrile (ACN) containing internal standard. The above solution was centrifuged at 5000 RPM for 10 minutes and 50 μL of supernatant was transferred to a clean 96-well plate, followed by the addition of 200 μL of water. An aliquot of 10 μL was injected to the API 5000 LC/MS/MS system.
For analysis on an Applied Biosystems API 5500 LC/MS/MS system, an aliquot of 20 μL of each plasma sample was treated with 120 μL acetonitrile (ACN) containing internal standard. The above solution was centrifuged and 100 μL of supernatant was transferred to a clean 96-well plate, followed by the addition of 100 μL of water. An aliquot of 7-10 μL was injected to the API 5500 LC/MS/MS system.
A Zorbax Extend C18 HPLC column (50×2.1 mm, 3.5 μm) from Agilent Technologies (Part #735700-902) (Comparative Example 1, and Comparative Example 2) or a Waters BEH C18 column (50×2.1 mm, 1.7 μm) (Example 1) was used. For the Zorbax Extend C18 HPLC column, mobile phase A contained an aqueous solution of 1% acetonitrile in 10 mM ammonium formate adjusted to pH 3.0 with formic acid and mobile phase B contained and 10% 10 mM ammonium formate in acetonitrile adjusted to pH 4.6 with formic acid. For the Waters BEH C18 column, mobile phase A contained 95% water, 5% acetonitrile, and 0.1% formic acid and mobile phase B contained 50% methanol, 50% acetonitrile, and 0.1% formic acid. A Thermo Aria multiplexer with two identical Agilent 1200 series binary pumps (P/N G1312A Bin Pump) was used for elution and separation. The elution programs used are set forth in the following Table 2 for the Zorbax Extend C18 HPLC and Table 3 for the Waters BEH C18 column.
An API 5000 triple quadrupole mass spectrometer from AB Sciex, Foster City, Calif. was used in multiple reaction monitoring mode to quantify the compounds.
as §6, with “Plasma levels of drug and FGF19 were measured at various time points over a 24 hour period to generate pharmacokinetic and pharmacodynamics curves.” left out

Compound | FGF19 levels compared to baseline (Farnesoid X receptor; 1 mg/kg) | FGF19 AUClast (Farnesoid X receptor; IV infusion, 1 mg/kg) | Ratio AUClast to FG19/GS (Farnesoid X receptor; IV, 1 mg/kg) | PO/IV (Farnesoid X receptor) | FGF19 AUClast (Farnesoid X receptor; PO, 5 mg/kg) | Ratio AUClast to FG19/GS (Farnesoid X receptor; PO, 5 mg/kg) | plasma FGF19 over the dosing interval compared to baseline (Farnesoid X receptor; 5 mg/kg) | AUC(0-t) ([1]; IV infusion, 1 mg/kg) | AUC(0-t) ([1]; PO, 5 mg/kg)
O=C(O)c1cnc(N2CC(O)(c3ccc(OCc4c(-c5c(Cl)cc(F)cc5Cl)noc4C4CC4)cc3Cl)C2)c(F)c1 [Comparative Example 1, 6-(3-(2-chloro-4-((5-cyclopropyl-3-(2,6-dichloro-4-fluorophenyl)isoxazol-4-yl)methoxy)phenyl)-3-hydroxyazetidin-1-yl)-5-fluoronicotinic acid] | increased FGF19 levels | 22798 ± 2387 pg·h/mL | 14 | 1.37 | 32085 ± 4252 pg·h/mL | 19.2 | caused increases in plasma FGF19 | 1.63 µM·h | 1.67 µM·h
O=C(O)c1ccc(N2CC(O)(c3ccc(OCc4c(-c5c(Cl)cc(F)cc5Cl)noc4C4CC4)cc3Cl)C2)nc1 [Example 1, 6-(3-(2-chloro-4-((5-cyclopropyl-3-(2,6-dichloro-4-fluorophenyl)isoxazol-4-yl)methoxy)phenyl)-3-hydroxyazetidin-1-yl)nicotinic acid] | did not cause in increase in FGF19 | 5144 ± 2199 pg·h/mL | 1.6 | 7.8 | 28153 ± 11539 pg·h/mL | 12.5 | caused increases in plasma FGF19 | 3.15 µM·h | 2.25 µM·h
O=C(O)c1ccc(N2CC(O)(c3ccc(OCc4c(-c5c(Cl)cccc5Cl)noc4C4CC4)cc3Cl)C2)nc1 [Comparative Example 2] | increased FGF19 levels | 10757 ± 2551 pg·h/mL | 3.4 | 8.2 | 18193 ± 7134 pg·h/mL | 28 | caused increases in plasma FGF19 | 3.14 µM·h | 0.643 µM·h
